We go through two molecules from ChEMBL document CHEMBL2073856, “Carrier-mediated hepatobiliary transport of a novel antifolate, N-[4-[(2,4-dianninopteridine-6-yl)methyl]-3,4-dihydro-2H-1,4-benzothiazin-7-yl]carbonyl-L-homoglutamic acid, in rats” (Drug Metab Dispos, 2001).

Series [1] deals with ATP-binding cassette sub-family C member 2 (Rattus norvegicus, UniProt Q63120). Briefly: TP_TRANSPORTER: inhibition of DNP-SG uptake in bile canalicular membrane vesicles from SD rat. Type of series: functional, cell membranes, Sprague-Dawley, Bile canalicular membrane vesicle.
Substrate in series [2]: Nc1nc(N)c2nc(CN3CCSc4cc(C(=O)NC(CCCC(=O)O)C(=O)O)ccc43)cnc2n1
Nature of the series: TP_TRANSPORTER: uptake in bile canalicular membrane vesicles from SD rat. Type of series: functional, cell membranes, Sprague-Dawley, Bile canalicular membrane vesicle.

One may read the Ki as a dissociation constant, usually derived from enzyme kinetics or from competition with a known ligand. A lower Ki goes with higher affinity. In series [1], `Nc1nc(N)c2nc(CN3CCSc4cc(C(=O)NC(CCCC(=O)O)C(=O)O)ccc43)cnc2n1` (configuration not stated) showed an inhibition constant (Ki) of 162 µM.

B1: ATP-binding cassette sub-family C member 2 (Rattus norvegicus) (protein)
chain: MDKFCNSTFWDLSLLESPEADLPLCFEQTVLVWIPLGFLWLLAPWQLYSVYRSRTKRSSITKFYLAKQVFVVFLLILAAIDLSLALTEDTGQATVPPVRYTNPILYLCTWLLVLAVQHSRQWCVRKNSWFLSLFWILSVLCGVFQFQTLIRALLKDSKSNMAYSYLFFVSYGFQIVLLILTAFSGPSDSTQTPSVTASFLSSITFSWYDRTVLKGYKHPLTLEDVWDIDEGFKTRSVTSKFEAAMTKDLQKARQAFQRRLQKSQRKPEATLHGLNKKQSQSQDVLVLEEAKKKSEKTTKDYPKSWLIKSLFKTFHVVILKSFILKLIHDLLVFLNPQLLKLLIGFVKSSNSYVWFGYICAILMFAVTLIQSFCLQSYFQHCFVLGMCVRTTVMSSIYKKALTLSNLARKQYTIGETVNLMSVDSQKLMDATNYMQLVWSSVIQITLSIFFLWRELGPSILAGVGVMVLLIPVNGVLATKIRNIQVQNMKNKDKRLKIMNEILSGIKILKYFAWEPSFQEQVQGIRKKELKNLLRFGQLQSLLIFILQITPILVSVVTFSVYVLVDSANVLNAEKAFTSITLFNILRFPLSMLPMVTSSILQASVSVDRLERYLGGDDLDTSAIRRVSNFDKAVKFSEASFTWDPDLEATIQDVNLDIKPGQLVAVVGTVGSGKSSLVSAMLGEMENVHGHITIQGSTAYVPQQSWIQNGTIKDNILFGSEYNEKKYQQVLKACALLPDLEILPGGDMAEIGEKGINLSGGQKQRVSLARAAYQDADIYILDDPLSAVDAHVGKHIFNKVVGPNGLLAGKTRIFVTHGIHFLPQVDEIVVLGKGTILEKGSYRDLLDKKGVFARNWKTFMKHSGPEGEATVNNDSEAEDDDDGLIPTMEEIPEDAASLAMRRENSLRRTLSRSSRSSSRRGKSLKNSLKIKNVNVLKEKEKEVEGQKLIKKEFVETGKVKFSIYLKYLQAVGWWSILFIILFYGLNNVAFIGSNLWLSAWTSDSDNLNGTNNSSSHRDMRIGVFGALGLAQGICLLISTLWSIYACRNASKALHGQLLTNILRAPMRFFDTTPTGRIVNRFSGDISTVDDLLPQTLRSWMMCFFGIAGTLVMICMATPVFAIIIIPLSILYISVQVFYVATSRQLRRLDSVTKSPIYSHFSETVTGLPIIRAFEHQQRFLAWNEKQIDINQKCVFSWITSNRWLAIRLELVGNLVVFCSALLLVIYRKTLTGDVVGFVLSNALNITQTLNWLVRMTSEAETNIVAVERISEYINVENEAPWVTDKRPPADWPRHGEIQFNNYQVRYRPELDLVLKGITCNIKSGEKVGVVGRTGAGKSSLTNCLFRILESAGGQIIIDGIDVASIGLHDLRERLTIIPQDPILFSGSLRMNLDPFNKYSDEEVWRALELAHLRSFVSGLQLGLLSEVTEGGDNLSIGQRQLLCLGRAVLRKSKILVLDEATAAVDLETDSLIQTTIRKEFSQCTVITIAHRLHTIMDSDKIMVLDNGKIVEYGSPEELLSNRGSFYLMAKEAGIENVNHTEL
The Km is the substrate concentration at which the rate is half of its maximum. As for B1, the Km in series [2] was 207 µM.
